{"source": "ChEMBL document CHEMBL5375999", "about": "“Discovery of a Dual Tubulin and Neuropilin-1 (NRP1) Inhibitor with Potent In Vivo Anti-Tumor Activity via Pharmacophore-based Docking Screening, Structure Optimization, and Biological Evaluation” (J Med Chem, 2023)", "key": {"Tubulin (Homo sapiens) [1]": {"biological_target": "T1, Tubulin (Homo sapiens) (UniProt P68371+Q9H4B7+P0DPH7+P68366+Q13509+Q71U36+P04350+Q3ZCM7+P07437+P68363+Q9BQE3+Q6PEY2+Q13885+Q9BVA1+Q9BUF5)", "assay": "Inhibition of tubulin polymerization (unknown origin) at 12 uM by spectrophotometric analysis relative to control", "assay_type": "protein-complex assay"}, "Tubulin": {"biological_target": "Tubulin", "assay": "Inhibition of tubulin polymerization (unknown origin) by spectrophotometric analysis", "assay_type": "protein-complex assay, Homo sapiens"}, "[2]": {"biological_target": "Vascular endothelial growth factor receptor 3 (Homo sapiens, UniProt P35916)", "assay": "Inhibition of VEGFR3 (unknown origin)"}, "[3]": {"biological_target": "AP2-associated protein kinase 1 (Homo sapiens, UniProt Q2M2I8)", "sequence (Q2M2I8 whole entry)": "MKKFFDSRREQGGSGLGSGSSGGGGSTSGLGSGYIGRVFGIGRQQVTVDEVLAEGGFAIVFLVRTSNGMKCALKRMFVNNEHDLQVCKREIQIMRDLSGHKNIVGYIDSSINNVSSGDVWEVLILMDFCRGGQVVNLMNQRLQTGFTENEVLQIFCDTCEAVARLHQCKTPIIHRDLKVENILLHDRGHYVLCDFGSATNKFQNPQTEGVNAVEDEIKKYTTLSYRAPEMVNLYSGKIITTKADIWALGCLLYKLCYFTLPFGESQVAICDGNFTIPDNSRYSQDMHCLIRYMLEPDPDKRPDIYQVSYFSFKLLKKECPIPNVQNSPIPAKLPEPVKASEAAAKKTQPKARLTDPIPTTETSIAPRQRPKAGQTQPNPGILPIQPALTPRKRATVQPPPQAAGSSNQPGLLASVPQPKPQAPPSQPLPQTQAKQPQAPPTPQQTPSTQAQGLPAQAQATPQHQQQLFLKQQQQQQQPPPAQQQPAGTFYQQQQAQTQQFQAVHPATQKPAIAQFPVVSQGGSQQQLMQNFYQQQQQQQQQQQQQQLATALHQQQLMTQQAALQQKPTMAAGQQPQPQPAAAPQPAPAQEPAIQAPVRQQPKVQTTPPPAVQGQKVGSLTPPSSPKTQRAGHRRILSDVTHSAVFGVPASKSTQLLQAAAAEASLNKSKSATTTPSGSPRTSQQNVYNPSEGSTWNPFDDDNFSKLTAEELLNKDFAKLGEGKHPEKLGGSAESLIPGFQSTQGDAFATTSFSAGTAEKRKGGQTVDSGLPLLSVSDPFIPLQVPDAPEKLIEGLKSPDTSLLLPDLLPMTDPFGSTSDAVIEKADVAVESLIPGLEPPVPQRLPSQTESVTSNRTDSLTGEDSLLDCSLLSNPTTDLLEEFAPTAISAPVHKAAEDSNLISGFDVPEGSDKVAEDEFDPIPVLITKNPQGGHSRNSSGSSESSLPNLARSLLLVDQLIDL", "assay": "Inhibition of AAK1 (unknown origin)"}, "Activin receptor type-1": {"biological_target": "Activin receptor type-1 (Homo sapiens, UniProt Q04771)", "sequence (Q04771 whole entry)": "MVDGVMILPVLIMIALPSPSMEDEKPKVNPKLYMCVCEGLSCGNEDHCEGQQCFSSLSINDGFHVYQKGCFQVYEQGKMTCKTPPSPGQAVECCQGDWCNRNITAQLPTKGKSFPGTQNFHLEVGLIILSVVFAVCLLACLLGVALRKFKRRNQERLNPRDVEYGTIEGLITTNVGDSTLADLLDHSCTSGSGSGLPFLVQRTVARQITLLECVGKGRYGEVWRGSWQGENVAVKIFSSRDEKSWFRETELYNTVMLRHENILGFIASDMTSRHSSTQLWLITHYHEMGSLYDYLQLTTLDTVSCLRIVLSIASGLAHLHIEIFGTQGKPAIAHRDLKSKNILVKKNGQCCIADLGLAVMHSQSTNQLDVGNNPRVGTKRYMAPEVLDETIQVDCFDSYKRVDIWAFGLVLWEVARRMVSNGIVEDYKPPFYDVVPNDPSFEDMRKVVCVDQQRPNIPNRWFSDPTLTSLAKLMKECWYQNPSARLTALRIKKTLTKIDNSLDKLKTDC", "assay": "Inhibition of ACVR1 (unknown origin)"}, "Activin receptor type-2A": {"biological_target": "Activin receptor type-2A (Homo sapiens, UniProt P27037)", "sequence (P27037 whole entry)": "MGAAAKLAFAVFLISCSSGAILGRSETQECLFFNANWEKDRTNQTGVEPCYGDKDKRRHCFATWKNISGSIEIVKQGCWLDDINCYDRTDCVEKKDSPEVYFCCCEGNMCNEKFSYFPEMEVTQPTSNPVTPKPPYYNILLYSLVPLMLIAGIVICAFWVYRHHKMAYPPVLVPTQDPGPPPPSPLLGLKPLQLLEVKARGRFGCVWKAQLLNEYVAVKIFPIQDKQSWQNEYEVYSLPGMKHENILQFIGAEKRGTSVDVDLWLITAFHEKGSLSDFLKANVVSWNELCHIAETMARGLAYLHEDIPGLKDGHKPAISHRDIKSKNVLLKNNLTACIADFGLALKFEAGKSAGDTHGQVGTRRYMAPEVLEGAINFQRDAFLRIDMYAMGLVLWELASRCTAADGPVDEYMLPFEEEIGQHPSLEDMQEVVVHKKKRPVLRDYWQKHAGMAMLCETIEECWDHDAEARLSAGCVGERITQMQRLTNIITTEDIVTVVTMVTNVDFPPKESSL", "assay": "Inhibition of ACVR2 (unknown origin)"}, "[4]": {"biological_target": "RAC-alpha serine/threonine-protein kinase (Homo sapiens, UniProt P31749)", "assay": "Inhibition of AKT1 (unknown origin)"}, "[5]": {"biological_target": "RAC-beta serine/threonine-protein kinase (Homo sapiens, UniProt P31751)", "sequence (P31751 whole entry)": "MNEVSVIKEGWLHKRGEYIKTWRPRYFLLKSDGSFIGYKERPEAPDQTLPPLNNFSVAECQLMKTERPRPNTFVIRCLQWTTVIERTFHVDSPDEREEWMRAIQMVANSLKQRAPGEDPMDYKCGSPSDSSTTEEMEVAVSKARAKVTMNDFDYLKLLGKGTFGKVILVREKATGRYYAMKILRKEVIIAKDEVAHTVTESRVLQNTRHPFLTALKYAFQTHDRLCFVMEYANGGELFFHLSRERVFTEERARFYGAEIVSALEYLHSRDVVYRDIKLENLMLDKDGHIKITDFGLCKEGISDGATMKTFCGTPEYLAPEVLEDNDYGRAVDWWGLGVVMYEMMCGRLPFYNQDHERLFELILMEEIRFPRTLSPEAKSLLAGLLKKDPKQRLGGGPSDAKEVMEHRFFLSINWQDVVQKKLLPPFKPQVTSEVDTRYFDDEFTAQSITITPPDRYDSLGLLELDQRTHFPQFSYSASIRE", "assay": "Inhibition of AKT2 (unknown origin)"}, "[6]": {"biological_target": "Cytoplasmic tyrosine-protein kinase BMX (Homo sapiens, UniProt P51813)", "sequence (P51813 whole entry)": "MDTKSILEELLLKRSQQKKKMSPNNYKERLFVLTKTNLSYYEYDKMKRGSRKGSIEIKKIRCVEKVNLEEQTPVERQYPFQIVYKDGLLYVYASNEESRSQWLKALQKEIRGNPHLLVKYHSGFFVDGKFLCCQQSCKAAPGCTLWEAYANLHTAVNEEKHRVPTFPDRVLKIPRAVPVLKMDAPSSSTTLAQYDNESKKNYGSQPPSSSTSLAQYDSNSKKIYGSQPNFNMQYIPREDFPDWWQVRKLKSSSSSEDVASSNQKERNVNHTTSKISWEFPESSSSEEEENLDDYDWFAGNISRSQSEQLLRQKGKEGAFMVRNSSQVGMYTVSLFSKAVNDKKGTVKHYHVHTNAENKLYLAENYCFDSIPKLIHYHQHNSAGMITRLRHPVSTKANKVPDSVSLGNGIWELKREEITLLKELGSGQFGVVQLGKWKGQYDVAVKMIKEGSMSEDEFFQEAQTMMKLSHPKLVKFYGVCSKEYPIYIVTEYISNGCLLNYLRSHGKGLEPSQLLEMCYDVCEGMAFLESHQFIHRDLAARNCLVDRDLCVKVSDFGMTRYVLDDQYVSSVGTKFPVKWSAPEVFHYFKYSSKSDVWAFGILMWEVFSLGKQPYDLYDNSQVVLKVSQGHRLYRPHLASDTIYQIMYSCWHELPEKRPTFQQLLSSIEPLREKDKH", "assay": "Inhibition of BMX (unknown origin)"}, "[7]": {"biological_target": "Cyclin-dependent kinase 2 (Homo sapiens, UniProt P24941)", "assay": "Inhibition of CDK2 (unknown origin)"}, "[8]": {"biological_target": "Cyclin-dependent kinase 3 (Homo sapiens, UniProt Q00526)", "sequence (Q00526 whole entry)": "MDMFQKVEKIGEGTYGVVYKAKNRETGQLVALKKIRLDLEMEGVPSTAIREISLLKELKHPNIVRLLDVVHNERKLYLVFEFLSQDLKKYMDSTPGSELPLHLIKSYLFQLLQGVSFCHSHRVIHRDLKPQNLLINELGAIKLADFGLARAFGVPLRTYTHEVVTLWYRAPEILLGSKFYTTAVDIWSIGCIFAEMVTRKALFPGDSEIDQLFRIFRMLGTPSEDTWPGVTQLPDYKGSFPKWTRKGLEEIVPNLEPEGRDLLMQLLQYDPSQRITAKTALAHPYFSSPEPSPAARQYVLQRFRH", "assay": "Inhibition of CDK3 (unknown origin)"}, "CDK6/cyclin D3": {"biological_target": "CDK6/cyclin D3 (Homo sapiens, UniProt Q00534)", "sequence (P30281 whole entry)": "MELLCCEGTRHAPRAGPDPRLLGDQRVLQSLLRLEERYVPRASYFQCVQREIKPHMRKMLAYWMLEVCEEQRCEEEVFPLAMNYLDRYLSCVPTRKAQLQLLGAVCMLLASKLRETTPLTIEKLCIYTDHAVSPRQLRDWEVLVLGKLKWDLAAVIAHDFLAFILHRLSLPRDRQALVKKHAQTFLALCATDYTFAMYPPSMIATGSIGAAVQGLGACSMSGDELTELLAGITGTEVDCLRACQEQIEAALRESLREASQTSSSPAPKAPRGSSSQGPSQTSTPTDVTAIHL", "sequence (Q00534 whole entry)": "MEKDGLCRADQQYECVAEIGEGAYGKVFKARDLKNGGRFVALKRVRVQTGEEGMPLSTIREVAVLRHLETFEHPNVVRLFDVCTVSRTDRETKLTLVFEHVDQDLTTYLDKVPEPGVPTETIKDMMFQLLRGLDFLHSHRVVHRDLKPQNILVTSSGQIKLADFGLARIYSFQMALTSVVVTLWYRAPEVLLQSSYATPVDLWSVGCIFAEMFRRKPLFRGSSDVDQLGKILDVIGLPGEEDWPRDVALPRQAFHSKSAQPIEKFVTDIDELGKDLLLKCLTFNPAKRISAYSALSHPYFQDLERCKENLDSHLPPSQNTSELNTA", "assay": "Inhibition of CDK6/Cyclin D3 (unknown origin)", "assay_type": "protein-complex assay"}, "[9]": {"biological_target": "Dual specificity protein kinase TTK (Homo sapiens, UniProt P33981)", "assay": "Inhibition of TTK (unknown origin)"}, "[10]": {"biological_target": "Mitogen-activated protein kinase kinase kinase 20 (Homo sapiens, UniProt Q9NYL2)", "assay": "Inhibition of ZAK (unknown origin)"}, "[11]": {"biological_target": "Mitogen-activated protein kinase 3 (Homo sapiens, UniProt P27361)", "sequence (P27361 whole entry)": "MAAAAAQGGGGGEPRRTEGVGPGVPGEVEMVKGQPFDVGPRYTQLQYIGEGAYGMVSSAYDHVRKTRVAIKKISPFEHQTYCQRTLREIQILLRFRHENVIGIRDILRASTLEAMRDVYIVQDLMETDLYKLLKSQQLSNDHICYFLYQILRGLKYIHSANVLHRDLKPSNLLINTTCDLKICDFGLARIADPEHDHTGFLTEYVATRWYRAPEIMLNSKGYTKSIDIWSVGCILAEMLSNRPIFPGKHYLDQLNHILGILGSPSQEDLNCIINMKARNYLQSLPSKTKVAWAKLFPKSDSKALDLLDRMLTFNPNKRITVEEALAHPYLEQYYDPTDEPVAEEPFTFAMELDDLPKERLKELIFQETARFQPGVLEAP", "assay": "Inhibition of ERK1 (unknown origin)"}, "[12]": {"biological_target": "Tyrosine-protein kinase Fgr (Homo sapiens, UniProt P09769)", "assay": "Inhibition of FGR (unknown origin)"}, "[13]": {"biological_target": "Tyrosine-protein kinase Lck (Homo sapiens, UniProt P06239)", "sequence (P06239 whole entry)": "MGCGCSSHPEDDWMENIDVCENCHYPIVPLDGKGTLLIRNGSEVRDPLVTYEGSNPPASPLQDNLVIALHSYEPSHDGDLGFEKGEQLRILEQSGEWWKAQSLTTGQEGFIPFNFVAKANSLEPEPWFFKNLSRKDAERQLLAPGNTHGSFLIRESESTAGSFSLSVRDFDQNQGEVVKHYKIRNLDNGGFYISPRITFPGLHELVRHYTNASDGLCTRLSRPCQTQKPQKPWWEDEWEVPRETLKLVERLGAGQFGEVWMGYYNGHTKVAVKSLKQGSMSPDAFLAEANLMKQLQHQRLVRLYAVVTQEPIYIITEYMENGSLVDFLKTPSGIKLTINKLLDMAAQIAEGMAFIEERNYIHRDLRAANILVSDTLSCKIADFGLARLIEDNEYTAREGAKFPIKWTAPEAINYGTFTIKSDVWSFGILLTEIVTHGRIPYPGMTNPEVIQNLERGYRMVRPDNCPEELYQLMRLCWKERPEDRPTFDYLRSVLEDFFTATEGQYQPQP", "assay": "Inhibition of LCK (unknown origin)"}, "[14]": {"biological_target": "RAF proto-oncogene serine/threonine-protein kinase (Homo sapiens, UniProt P04049)", "assay": "Inhibition of RAF1 (unknown origin)"}, "[15]": {"biological_target": "Proto-oncogene tyrosine-protein kinase ROS (Homo sapiens, UniProt P08922)", "assay": "Inhibition of ROS1 (unknown origin)"}, "Tubulin (Homo sapiens) [16]": {"biological_target": "T1, Tubulin (Homo sapiens)", "assay": "Inhibition of tubulin polymerization in human PC-3 cells assessed as cell shrinkage at 0.1 to 12.5 uM incubated for 48 hrs by immunofluorescence assay", "assay_type": "cell-based", "conditions": "dose 0.1-12.5 µM"}, "Tubulin (Homo sapiens) [17]": {"biological_target": "T1, Tubulin (Homo sapiens)", "assay": "Inhibition of tubulin polymerization in human PC-3 cells assessed as appearance of blurred nucleus at 2.5 to 12.5 uM incubated for 48 hrs by immunofluorescence assay", "assay_type": "cell-based", "conditions": "dose 2.5-12.5 µM"}, "PC-3 [18]": {"tested_on": "PC-3", "assay": "Cytotoxicity against human PC-3 cells assessed as inhibition of cell viability incubated for 48 hrs by MTT assay", "assay_type": "functional, cell-based", "conditions": "PC-3, 48 h"}, "DU-145": {"tested_on": "DU-145", "assay": "Cytotoxicity against human DU-145 cells assessed as inhibition of cell viability incubated for 48 hrs by MTT assay", "assay_type": "functional, cell-based"}, "PC-3M": {"tested_on": "PC-3M", "assay": "Cytotoxicity against human PC-3M cells assessed as inhibition of cell viability incubated for 48 hrs by MTT assay", "assay_type": "functional, cell-based"}, "PC-3 [19]": {"tested_on": "PC-3", "assay": "Induction of cell cycle arrest in human PC-3 cells assessed as accumulation of cells at G2/M phase at 0.5 uM by flow cytometry analysis (reference value: 3.24%)", "assay_type": "functional"}, "PC-3 [20]": {"tested_on": "PC-3", "assay": "Induction of cell cycle arrest in human PC-3 cells assessed as accumulation of cells at G2/M phase at 2.5 uM by flow cytometry analysis (reference value: 3.24%)", "assay_type": "functional"}, "PC-3 [21]": {"tested_on": "PC-3", "assay": "Induction of cell cycle arrest in human PC-3 cells assessed as accumulation of cells at G2/M phase at 12.5 uM by flow cytometry analysis (reference value: 3.24%)", "assay_type": "functional"}, "PC-3 [22]": {"tested_on": "PC-3", "assay": "Induction of cell cycle arrest in human PC-3 cells assessed as increase in p-cdc2 expression at 0.5 to 12.5 uM incubated for 48 hrs by Western blotting analysis", "assay_type": "functional, cell-based", "conditions": "dose 0.5-12.5 µM"}, "PC-3 [23]": {"tested_on": "PC-3", "assay": "Induction of cell cycle arrest in human PC-3 cells assessed as decrease in cyclin-B1 expression at 0.5 to 12.5 uM incubated for 48 hrs by Western blotting analysis", "assay_type": "functional, cell-based", "conditions": "dose 0.5-12.5 µM"}, "PC-3 [24]": {"tested_on": "PC-3", "assay": "Induction of apoptosis in human PC-3 cells assessed as early apoptotic cells at 0.1 uM by Annexin-V FITC staining based flow cytometry analysis (reference value: 1.51%)", "assay_type": "functional"}, "PC-3 [25]": {"tested_on": "PC-3", "assay": "Induction of apoptosis in human PC-3 cells assessed as late apoptotic cells at 0.5 uM by Annexin-V FITC staining based flow cytometry analysis (reference value: 1.67%)", "assay_type": "functional"}, "PC-3 [26]": {"tested_on": "PC-3", "assay": "Induction of apoptosis in human PC-3 cells assessed as necrotic cells at 0.5 uM by Annexin-V FITC staining based flow cytometry analysis (reference value: 0.059%)", "assay_type": "functional"}, "PC-3 [27]": {"tested_on": "PC-3", "assay": "Induction of apoptosis in human PC-3 cells assessed as viable cells at 2.5 uM by Annexin-V FITC staining based flow cytometry analysis (reference value: 96.8%)", "assay_type": "functional", "conditions": "read-out: Activity"}, "PC-3 [28]": {"tested_on": "PC-3", "assay": "Induction of apoptosis in human PC-3 cells assessed as late apoptotic cells at 2.5 uM by Annexin-V FITC staining based flow cytometry analysis (reference value: 1.67%)", "assay_type": "functional"}, "PC-3 [29]": {"tested_on": "PC-3", "assay": "Induction of apoptosis in human PC-3 cells assessed as viable cells at 12.5 uM by Annexin-V FITC staining based flow cytometry analysis (reference value: 96.8%)", "assay_type": "functional", "conditions": "read-out: Activity"}, "PC-3 [30]": {"tested_on": "PC-3", "assay": "Induction of apoptosis in human PC-3 cells assessed as early apoptotic cells at 12.5 uM by Annexin-V FITC staining based flow cytometry analysis (reference value: 1.51%)", "assay_type": "functional"}, "PC-3 [31]": {"tested_on": "PC-3", "assay": "Antiangiogenesis activity in human PC-3 cells assessed as appearance of scattered cells at 0.1 to 12.5 uM incubated for 8 to 15 hrs by matrigel based inverted microscopic analysis", "assay_type": "functional, cell-based", "conditions": "dose 0.1-12.5 µM, time 8-15 hrs"}, "[32]": {"assay": "Toxicity in BALB/c mouse xenografted with human PC-3 cells assessed as change in liver morphology at 5 to 10 mg/kg, ip administered every 4 days for 20 days by H and E staining based inverted microscopic assay", "assay_type": "organism-based", "conditions": "in vivo, 480 h, dose 5-10 mg/kg, time 20 day"}, "[33]": {"assay": "Toxicity in BALB/c mouse xenografted with human PC-3 cells assessed as change in spleen morphology at 5 to 10 mg/kg, ip administered every 4 days for 20 days by H and E staining based inverted microscopic assay", "assay_type": "organism-based", "conditions": "in vivo, 480 h, dose 5-10 mg/kg, time 20 day"}, "[34]": {"assay": "Tmax in Sprague-Dawley rat at 1.5 mg/kg, po measured upto 24 hrs by LC-MS/MS analysis", "assay_type": "ADME, organism-based", "conditions": "in vivo"}, "[35]": {"assay": "AUC in Sprague-Dawley rat at 1.5 mg/kg, po measured upto 24 hrs by LC-MS/MS analysis", "assay_type": "ADME, organism-based", "design": "dose 1.5 mg/kg, time < 24 hrs, route po", "conditions": "in vivo"}}, "note": "Calls of active or inactive are those of the source. The rule behind the calls is not given here."}
{"smiles": "COc1ccc(/C=C\\c2cc(OC)c(OC)c(OC)c2)cc1NC(=O)CCC(=O)N[C@@H](CCCNC(=N)N)C(=O)O", "values": [{"measurement": "inhibition", "setting": "Tubulin (Homo sapiens) [1]", "value": 96, "unit": "%"}, {"measurement": "IC50", "setting": "Tubulin", "value": 0.71, "unit": "µM"}, {"measurement": "IC50", "setting": "[2]", "value": "> 10", "unit": "µM"}, {"measurement": "IC50", "setting": "[3]", "value": "> 10", "unit": "µM"}, {"measurement": "IC50", "setting": "Activin receptor type-1", "value": "> 10", "unit": "µM"}, {"measurement": "IC50", "setting": "Activin receptor type-2A", "value": "> 10", "unit": "µM"}, {"measurement": "IC50", "setting": "[4]", "value": "> 10", "unit": "µM"}, {"measurement": "IC50", "setting": "[5]", "value": "> 10", "unit": "µM"}, {"measurement": "IC50", "setting": "[6]", "value": "> 10", "unit": "µM"}, {"measurement": "IC50", "setting": "[7]", "value": "> 10", "unit": "µM"}, {"measurement": "IC50", "setting": "[8]", "value": "> 10", "unit": "µM"}, {"measurement": "IC50", "setting": "CDK6/cyclin D3", "value": "> 10", "unit": "µM"}, {"measurement": "IC50", "setting": "[9]", "value": "> 10", "unit": "µM"}, {"measurement": "IC50", "setting": "[10]", "value": "> 10", "unit": "µM"}, {"measurement": "IC50", "setting": "[11]", "value": "> 10", "unit": "µM"}, {"measurement": "IC50", "setting": "[12]", "value": "> 10", "unit": "µM"}, {"measurement": "IC50", "setting": "[13]", "value": "> 10", "unit": "µM"}, {"measurement": "IC50", "setting": "[14]", "value": "> 10", "unit": "µM"}, {"measurement": "IC50", "setting": "[15]", "value": "> 10", "unit": "µM"}, {"measurement": "inhibition", "setting": "Tubulin (Homo sapiens) [16]", "value": "Active"}, {"measurement": "inhibition", "setting": "Tubulin (Homo sapiens) [17]", "value": "Active"}, {"measurement": "IC50", "setting": "PC-3 [18]", "value": 0.02, "unit": "µM"}, {"measurement": "Activity", "setting": "DU-145", "value": "Active"}, {"measurement": "Activity", "setting": "PC-3M", "value": "Active"}, {"measurement": "Activity", "setting": "PC-3 [19]", "value": 8.96, "unit": "%"}, {"measurement": "Activity", "setting": "PC-3 [20]", "value": 11.58, "unit": "%"}, {"measurement": "Activity", "setting": "PC-3 [21]", "value": 14.02, "unit": "%"}, {"measurement": "Activity", "setting": "PC-3 [22]", "value": "Active"}, {"measurement": "Activity", "setting": "PC-3 [23]", "value": "Active"}, {"measurement": "Activity", "setting": "PC-3 [24]", "value": 1.84, "unit": "%"}, {"measurement": "Activity", "setting": "PC-3 [25]", "value": 5.32, "unit": "%"}, {"measurement": "Activity", "setting": "PC-3 [26]", "value": 0.12, "unit": "%"}, {"measurement": "viability at 2.5 µM", "setting": "PC-3 [27]", "value": 89.3, "unit": "%"}, {"measurement": "Activity", "setting": "PC-3 [28]", "value": 5.6, "unit": "%"}, {"measurement": "viability at 12.5 µM", "setting": "PC-3 [29]", "value": 89.4, "unit": "%"}, {"measurement": "Activity", "setting": "PC-3 [30]", "value": 4.55, "unit": "%"}, {"measurement": "Activity", "setting": "PC-3 [31]", "value": "Active"}, {"measurement": "Activity", "setting": "[32]", "value": "Non-Toxic"}, {"measurement": "Activity", "setting": "[33]", "value": "Non-Toxic"}, {"measurement": "Tmax", "setting": "[34]", "value": 30, "unit": "min"}, {"measurement": "AUC at 24 h", "setting": "[35]", "value": 4300, "unit": "ng·h/mL"}]}
